Source: article PMC5862592, “CDK8/19 inhibition induces premature G1/S transition and ATR-dependent cell death in prostate cancer cells” (Oncotarget, 2018)
Like-named read-outs stand apart in the source and are kept apart here.

Key:
Test in all cases: biochemical
Set-up in all cases: KINOMEscan active site-directed competition binding assay (DiscoveRx), 456 kinases, per cent of control at 300 nM
Details in all cases: read-out: Percent of Control (%)
PRKD1 = PRKD1 (Homo sapiens, UniProt Q15139)
In short: (§1)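 At 300 nmol/L, compounds were assessed for kinase binding in an active site-directed competition format covering 456 kinases.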

CSNK1G3 = CSNK1G3 (Homo sapiens, UniProt Q9Y6M4)
In short: as §1

BRAF = BRAF (Homo sapiens, UniProt P15056)
Sequence of BRAF (P15056 whole entry): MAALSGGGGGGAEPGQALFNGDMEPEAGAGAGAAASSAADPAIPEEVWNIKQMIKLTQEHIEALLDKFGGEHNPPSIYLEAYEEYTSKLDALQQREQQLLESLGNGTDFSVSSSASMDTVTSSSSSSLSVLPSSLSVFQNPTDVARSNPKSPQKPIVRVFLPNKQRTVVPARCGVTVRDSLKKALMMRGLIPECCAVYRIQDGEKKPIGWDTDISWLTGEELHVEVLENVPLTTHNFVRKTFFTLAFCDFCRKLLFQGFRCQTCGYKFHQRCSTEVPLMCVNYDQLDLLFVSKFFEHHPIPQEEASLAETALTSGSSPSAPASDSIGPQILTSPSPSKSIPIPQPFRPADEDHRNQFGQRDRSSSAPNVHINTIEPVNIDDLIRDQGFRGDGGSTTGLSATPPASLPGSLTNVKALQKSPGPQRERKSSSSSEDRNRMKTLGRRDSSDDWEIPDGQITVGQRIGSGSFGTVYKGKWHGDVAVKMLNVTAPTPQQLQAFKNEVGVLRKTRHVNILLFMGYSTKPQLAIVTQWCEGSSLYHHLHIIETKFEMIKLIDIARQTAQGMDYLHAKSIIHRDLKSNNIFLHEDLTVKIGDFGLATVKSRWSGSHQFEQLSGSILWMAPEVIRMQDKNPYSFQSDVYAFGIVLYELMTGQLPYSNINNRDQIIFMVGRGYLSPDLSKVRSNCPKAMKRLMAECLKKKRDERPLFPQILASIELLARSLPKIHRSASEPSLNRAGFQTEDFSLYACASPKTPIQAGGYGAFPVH
In short: as §1

KIT(V559D,V654A) = KIT(V559D,V654A) (Homo sapiens, UniProt P10721, V559D/V654A)
In short: as §1

CDKL5 = CDKL5 (Homo sapiens, UniProt O76039)
In short: as §1

IRAK1 = IRAK1 (Homo sapiens, UniProt P51617)
Sequence of IRAK1 (P51617 whole entry): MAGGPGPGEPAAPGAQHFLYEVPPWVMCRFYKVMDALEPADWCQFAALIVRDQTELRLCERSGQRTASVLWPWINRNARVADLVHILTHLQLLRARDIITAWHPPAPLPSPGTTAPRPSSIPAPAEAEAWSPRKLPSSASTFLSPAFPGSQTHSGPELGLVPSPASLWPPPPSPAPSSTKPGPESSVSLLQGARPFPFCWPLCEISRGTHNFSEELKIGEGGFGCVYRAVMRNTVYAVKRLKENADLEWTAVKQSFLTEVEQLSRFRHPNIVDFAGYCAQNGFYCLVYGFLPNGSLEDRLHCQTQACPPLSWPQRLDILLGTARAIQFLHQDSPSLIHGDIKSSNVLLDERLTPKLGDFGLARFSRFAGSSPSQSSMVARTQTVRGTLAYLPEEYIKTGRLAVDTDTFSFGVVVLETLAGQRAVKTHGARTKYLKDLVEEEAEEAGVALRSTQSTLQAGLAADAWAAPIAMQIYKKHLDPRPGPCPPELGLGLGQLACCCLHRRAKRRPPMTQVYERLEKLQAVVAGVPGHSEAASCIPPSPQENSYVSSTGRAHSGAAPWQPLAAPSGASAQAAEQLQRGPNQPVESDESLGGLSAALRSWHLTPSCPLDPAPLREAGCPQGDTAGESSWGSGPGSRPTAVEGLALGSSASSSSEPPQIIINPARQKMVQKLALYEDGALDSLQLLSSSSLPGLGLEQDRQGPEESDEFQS
In short: as §1

PIK3CA(M1043I) = PIK3CA(M1043I) (Homo sapiens, UniProt P42336, M1043I)
In short: as §1

PRKD3 = PRKD3 (Homo sapiens, UniProt O94806)
In short: as §1

KIT(V559D) = KIT(V559D) (Homo sapiens, UniProt P10721, V559D)
In short: as §1

CAMK2D = CAMK2D (Homo sapiens, UniProt Q13557)
In short: as §1

FLT3 = FLT3 (Homo sapiens, UniProt P36888)
In short: as §1

TESK1 = TESK1 (Homo sapiens, UniProt Q15569)
In short: as §1

CAMK2G = CAMK2G (Homo sapiens, UniProt Q13555)
In short: as §1

GRK7 = GRK7 (Homo sapiens, UniProt Q8WTQ7)
In short: as §1

ANKK1 = ANKK1 (Homo sapiens, UniProt Q8NFD2)
In short: as §1

JNK1 = target: T1, JNK1 (Homo sapiens, UniProt P45983)
T1 construct: gene MAPK8
T1 sequence (P45983 whole entry): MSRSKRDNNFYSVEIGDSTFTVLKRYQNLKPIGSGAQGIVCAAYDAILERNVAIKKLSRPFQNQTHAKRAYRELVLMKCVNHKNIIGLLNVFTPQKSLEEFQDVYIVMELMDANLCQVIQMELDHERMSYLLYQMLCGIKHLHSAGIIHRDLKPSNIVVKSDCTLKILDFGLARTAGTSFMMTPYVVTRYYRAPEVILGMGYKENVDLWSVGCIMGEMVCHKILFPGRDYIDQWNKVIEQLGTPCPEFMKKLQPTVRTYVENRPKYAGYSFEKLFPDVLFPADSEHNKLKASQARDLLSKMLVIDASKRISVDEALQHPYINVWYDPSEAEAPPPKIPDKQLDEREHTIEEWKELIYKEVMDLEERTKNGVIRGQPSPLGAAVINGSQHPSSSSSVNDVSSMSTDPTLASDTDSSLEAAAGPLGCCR
In short: as §1

SRPK3 = SRPK3 (Homo sapiens, UniProt Q9UPE1)
Sequence of SRPK3 (Q9UPE1 whole entry): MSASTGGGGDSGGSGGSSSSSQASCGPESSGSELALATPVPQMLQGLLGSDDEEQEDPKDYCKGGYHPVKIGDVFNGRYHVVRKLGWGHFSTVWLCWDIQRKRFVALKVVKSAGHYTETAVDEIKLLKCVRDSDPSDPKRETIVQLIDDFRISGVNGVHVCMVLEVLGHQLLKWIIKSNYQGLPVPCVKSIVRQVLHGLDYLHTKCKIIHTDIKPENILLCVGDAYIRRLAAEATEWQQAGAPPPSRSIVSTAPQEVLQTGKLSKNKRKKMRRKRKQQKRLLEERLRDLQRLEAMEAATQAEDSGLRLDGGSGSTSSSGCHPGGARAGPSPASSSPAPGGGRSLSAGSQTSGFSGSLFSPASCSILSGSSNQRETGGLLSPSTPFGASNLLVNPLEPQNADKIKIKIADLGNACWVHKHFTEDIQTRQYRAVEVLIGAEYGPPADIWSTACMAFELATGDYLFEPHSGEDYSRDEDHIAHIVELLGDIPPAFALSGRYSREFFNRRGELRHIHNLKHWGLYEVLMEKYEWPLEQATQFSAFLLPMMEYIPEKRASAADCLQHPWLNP
In short: as §1

HIPK2 = HIPK2 (Homo sapiens, UniProt Q9H2X6)
In short: as §1

TIE1 = TIE1 (Homo sapiens, UniProt P35590)
Sequence of TIE1 (P35590 whole entry): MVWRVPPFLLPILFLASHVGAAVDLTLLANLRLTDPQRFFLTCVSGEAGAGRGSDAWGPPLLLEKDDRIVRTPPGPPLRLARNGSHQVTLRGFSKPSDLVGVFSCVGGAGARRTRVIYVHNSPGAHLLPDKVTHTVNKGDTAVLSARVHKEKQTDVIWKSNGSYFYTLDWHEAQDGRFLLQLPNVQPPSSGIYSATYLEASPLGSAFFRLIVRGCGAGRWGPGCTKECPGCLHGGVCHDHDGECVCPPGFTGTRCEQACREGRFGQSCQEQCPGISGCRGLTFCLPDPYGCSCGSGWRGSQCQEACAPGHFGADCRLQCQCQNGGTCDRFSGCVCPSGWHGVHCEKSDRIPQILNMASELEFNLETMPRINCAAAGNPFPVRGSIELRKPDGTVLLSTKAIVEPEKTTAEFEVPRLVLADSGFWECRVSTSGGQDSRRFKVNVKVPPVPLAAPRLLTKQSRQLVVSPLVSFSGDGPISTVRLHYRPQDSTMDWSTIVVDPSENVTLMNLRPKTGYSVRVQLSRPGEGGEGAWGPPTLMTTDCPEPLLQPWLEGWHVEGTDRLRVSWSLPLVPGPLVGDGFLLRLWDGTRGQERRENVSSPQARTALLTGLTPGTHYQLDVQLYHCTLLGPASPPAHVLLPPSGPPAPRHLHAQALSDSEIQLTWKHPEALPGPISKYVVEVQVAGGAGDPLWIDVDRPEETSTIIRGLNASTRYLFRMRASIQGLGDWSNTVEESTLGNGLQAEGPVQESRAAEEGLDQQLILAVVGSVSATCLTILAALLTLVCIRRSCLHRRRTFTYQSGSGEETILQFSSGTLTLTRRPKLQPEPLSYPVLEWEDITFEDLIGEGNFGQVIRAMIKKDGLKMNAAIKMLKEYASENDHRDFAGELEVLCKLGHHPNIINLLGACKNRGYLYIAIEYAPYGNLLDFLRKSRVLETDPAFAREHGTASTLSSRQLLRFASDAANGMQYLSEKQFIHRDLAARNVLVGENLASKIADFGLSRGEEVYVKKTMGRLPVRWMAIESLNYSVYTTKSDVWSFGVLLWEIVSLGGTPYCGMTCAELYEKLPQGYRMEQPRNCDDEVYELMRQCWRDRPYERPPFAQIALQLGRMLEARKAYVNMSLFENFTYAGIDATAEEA
In short: as §1

LTK = LTK (Homo sapiens, UniProt P29376)
In short: as §1

TGFBR1 = TGFBR1 (Homo sapiens, UniProt P36897)
Sequence of TGFBR1 (P36897 whole entry): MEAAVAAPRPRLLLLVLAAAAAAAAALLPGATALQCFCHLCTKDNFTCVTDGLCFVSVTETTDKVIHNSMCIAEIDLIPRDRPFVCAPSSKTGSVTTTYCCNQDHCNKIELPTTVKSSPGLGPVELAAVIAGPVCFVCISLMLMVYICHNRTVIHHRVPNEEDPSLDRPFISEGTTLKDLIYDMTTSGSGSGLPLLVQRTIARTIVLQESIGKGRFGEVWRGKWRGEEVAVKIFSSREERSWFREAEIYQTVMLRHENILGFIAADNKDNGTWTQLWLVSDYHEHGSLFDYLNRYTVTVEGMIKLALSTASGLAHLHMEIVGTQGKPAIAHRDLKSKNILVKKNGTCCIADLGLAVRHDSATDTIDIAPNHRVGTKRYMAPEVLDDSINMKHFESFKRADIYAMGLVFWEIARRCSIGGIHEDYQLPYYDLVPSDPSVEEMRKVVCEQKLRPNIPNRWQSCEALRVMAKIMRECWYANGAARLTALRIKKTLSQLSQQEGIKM
In short: as §1

PKAC-alpha = target: T2, PKAC-alpha (Homo sapiens, UniProt P17612)
T2 construct: gene PRKACA
In short: as §1

Sequence of PRKD1 (Q15139 whole entry): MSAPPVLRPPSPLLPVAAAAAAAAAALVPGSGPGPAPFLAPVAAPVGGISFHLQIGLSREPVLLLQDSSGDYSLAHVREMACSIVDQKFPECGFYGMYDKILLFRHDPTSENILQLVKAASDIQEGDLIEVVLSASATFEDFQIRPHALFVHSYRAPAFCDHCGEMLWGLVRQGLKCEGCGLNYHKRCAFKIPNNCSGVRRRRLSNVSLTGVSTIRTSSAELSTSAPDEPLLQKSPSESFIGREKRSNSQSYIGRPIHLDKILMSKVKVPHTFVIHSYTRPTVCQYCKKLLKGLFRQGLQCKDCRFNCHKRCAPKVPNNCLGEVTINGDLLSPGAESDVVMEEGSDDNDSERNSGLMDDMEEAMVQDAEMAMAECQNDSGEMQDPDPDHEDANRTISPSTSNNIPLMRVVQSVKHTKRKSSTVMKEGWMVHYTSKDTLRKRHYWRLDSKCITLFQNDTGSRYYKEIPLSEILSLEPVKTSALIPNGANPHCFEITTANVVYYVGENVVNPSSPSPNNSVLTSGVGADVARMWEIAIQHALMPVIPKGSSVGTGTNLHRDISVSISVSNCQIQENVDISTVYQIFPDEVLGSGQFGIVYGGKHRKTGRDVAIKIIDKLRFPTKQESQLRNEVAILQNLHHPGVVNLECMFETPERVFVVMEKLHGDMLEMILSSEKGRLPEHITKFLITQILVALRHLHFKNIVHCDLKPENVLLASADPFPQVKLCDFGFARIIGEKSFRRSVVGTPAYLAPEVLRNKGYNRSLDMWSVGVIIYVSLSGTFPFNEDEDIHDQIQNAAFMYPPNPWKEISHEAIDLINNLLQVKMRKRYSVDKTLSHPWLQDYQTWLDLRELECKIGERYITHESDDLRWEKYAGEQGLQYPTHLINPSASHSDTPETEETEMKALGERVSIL

In the case of `O=C(/C=C/c1cnccc1-c1ccc(F)cc1)Nc1ccc(CCc2nnco2)cc1` [T-418, (2E)-3-(4-(4-fluorophenyl)pyridin-3-yl)-N-(4-(2-(1,3,4-oxadiazol-2-yl)ethyl)phenyl)acrylamide], the remaining binding at 0.3 µM (PRKD1; sheet T-418) is reported as 96%, the remaining binding at 0.3 µM (CSNK1G3; sheet T-418) is reported as 100% and the remaining binding at 0.3 µM (BRAF; sheet T-418) is reported as 100%. The remaining binding at 0.3 µM (KIT(V559D,V654A); sheet T-418) was 96%, the remaining binding at 0.3 µM (CDKL5; sheet T-418) was 88% and the remaining binding at 0.3 µM (IRAK1; sheet T-418) was 100%. The remaining binding at 0.3 µM (PIK3CA(M1043I); sheet T-418) was 100%, the remaining binding at 0.3 µM (PRKD3; sheet T-418) was 100% and the remaining binding at 0.3 µM (KIT(V559D); sheet T-418) was 100%. The remaining binding at 0.3 µM (CAMK2D; sheet T-418) was 100%, the remaining binding at 0.3 µM (FLT3; sheet T-418) was 66% and the remaining binding at 0.3 µM (TESK1; sheet T-418) was 99%. For the same molecule, the remaining binding at 0.3 µM (CAMK2G; sheet T-418) was 94%, the remaining binding at 0.3 µM (GRK7; sheet T-418) was 80% and the remaining binding at 0.3 µM (ANKK1; sheet T-418) was 89%. The remaining binding at 0.3 µM (JNK1; sheet T-418) was 90%, the remaining binding at 0.3 µM (SRPK3; sheet T-418) was 100% and the remaining binding at 0.3 µM (HIPK2; sheet T-418) was 53%. For the same molecule, the remaining binding at 0.3 µM (TIE1; sheet T-418) was 100%, the remaining binding at 0.3 µM (LTK; sheet T-418) was 100% and the remaining binding at 0.3 µM (TGFBR1; sheet T-418) was 94%. For the same molecule, the remaining binding at 0.3 µM (PKAC-alpha; sheet T-418) was 66%.
For `Cc1ncccc1Oc1sc(C(N)=O)c2c1-c1c(cnn1C)CC2` [T-474, 1-methyl-8-((2-methylpyridin-3-yl)oxy)-4,5-dihydro-1H-thieno[3,4-g]indazole-6-carboxamide], the remaining binding at 0.3 µM (PRKD1) was 96%, the remaining binding at 0.3 µM (CSNK1G3) was 100% and the remaining binding at 0.3 µM (BRAF) was 100%. The remaining binding at 0.3 µM (KIT(V559D,V654A)) was 100%, the remaining binding at 0.3 µM (CDKL5) was 100% and the remaining binding at 0.3 µM (IRAK1) was 100%. For the same molecule, the remaining binding at 0.3 µM (PIK3CA(M1043I)) was 100%, the remaining binding at 0.3 µM (PRKD3) was 100% and the remaining binding at 0.3 µM (KIT(V559D)) was 100%. It also gave a remaining binding at 0.3 µM (CAMK2D) of 100%, a remaining binding at 0.3 µM (FLT3) of 100% and a remaining binding at 0.3 µM (TESK1) of 100%. For the same molecule, the remaining binding at 0.3 µM (CAMK2G) was 97%, the remaining binding at 0.3 µM (GRK7) was 100% and the remaining binding at 0.3 µM (ANKK1) was 100%. It also gave a remaining binding at 0.3 µM (JNK1) of 87%, a remaining binding at 0.3 µM (SRPK3) of 100% and a remaining binding at 0.3 µM (HIPK2) of 42%. The remaining binding at 0.3 µM (TIE1) was 100%, the remaining binding at 0.3 µM (LTK) was 100% and the remaining binding at 0.3 µM (TGFBR1) was 81%. It also gave a remaining binding at 0.3 µM (PKAC-alpha) of 90%.
